From US20060258635A1, “Use of a porphyrin compound for the treatment of skin fungi” (PHOTOBIOCHEM N.V., priority 2003, published 2006)

Tests used:
Trichophyton rubrum [1] = experiment: Photodynamic treatment of Trichophyton rubrum suspension culture (white light illumination, growth on MEA quantified by counting inoculates); type: cell-based; conditions: for result of photodynamic treatment of Trichophyton rubrum in suspension culture: 30 min incubation at 28° C., white light illumination, growth monitored during one week; for photodynamic efficacy above a concentration of 3 μg/ml: above 3 μg/ml; for photodynamic efficacy above a concentration of 3 μg/ml / photodynamic efficacy below a concentration of 3 μg/ml: FIG. 1A; for concentration at which a true fungicidal effect was detected: after photodynamic treatment, FIG. 1B; for photodynamic efficacy below a concentration of 3 μg/ml: below 3 μg/ml; for survival of the fungus after photodynamic treatment: after 7 days, over the whole concentration range used, control without photosensitizer is 100%
Description: Materials The fungus Trichophyton rubrum was purchased from the Centraalbureau voor Schimmelcultures (CBS), Baarn, The Netherlands. Cultures were grown on Malt Extract Agar (MEA, Oxoid, Hampshire England). Suspension cultures were made in Dulbecco's Modified Eagle Medium (DMEM, GibcoBRL, UK) with 2.5 % Fetal Calf Serum (FCS, GibcoBRL, UK).
Solid cultures were maintained at 28° C., the suspension cultures at room temperature. Hematoporphyrin (HP) was purchased from Porphyrin Products Inc. (Utah, USA), 5,10,15-tris(4-methylpyridinium)-20-phenyl-[21H, 23H]-porphyrine trichloride (Sylsens B), deuteroporphyrin (DP) and deuteroporphyrin monomethylester (DP mme) were synthesized and kindly provided by the Department of Bio-Organic Photochemistry, Leiden University, the Netherlands (purity, checked with NMR was more than 99.5%). All the phthalocyanines were purchased from Porphyrin Products. Inc. (Utah, USA)) and Photofrin was purchased from Lederle Parenterals Inc. (Carolina, USA). Polyethylene-glycol was obtained from Genfarma B.V. (Maarssen, the Netherlands), while all other chemicals were purchased from J.T.Baker (Deventer, The Netherlands).
The following solvents were used: • 50 mM sodium phosphate buffer pH 7.4 for Sylsens B, HP, Photofrin, ZnPc and AlPcS4; • polyethyleneglycol:ethanol:water (3:2:5) for DP and DP mme; and • dimethylformamide (DMF) for PcS4.
Stock solutions of the photosensitizers of 2.5 mg/ml solvent were stored at […] for no longer than one week.
Photodynamic treatment Illuminations were performed with a lamp from “MASSIVE” (no.74900/21), 1× max. 500W-230 V-R7s, IP 44. To avoid heating of the samples to be illuminated, the white light produced by the lamp first passes a 2 cm thick water layer before reaching the samples. The light intensity was measured with a IL1400A photometer equipped with a SEL033/F/U detector (International Light, Newburyport, Mass., USA). Before illumination, the fungal culture suspensions were incubated with the photosensitizer in test tubes for 30 minutes at a temperature of 28° C. After incubation, the suspension cultures were illuminated in the presence of the sensitizer in 3 cm diameter culture dishes (Greiner, Alphen aan den Rijn, The Netherlands). After illumination, the contents of the culture dishes were transferred to dishes of 9 cm diameter containing MEA, placed in the incubator at 28° C. and growth was monitored during one week and quantified by counting the number of inoculates present.

Trichophyton rubrum [2] = type: cell-based

| Compound | result of photodynamic treatment of Trichophyton rubrum in suspension culture (Trichophyton rubrum [1]) | photodynamic efficacy above a concentration of 3 μg/ml (Trichophyton rubrum [1]) | concentration at which a true fungicidal effect was detected (Trichophyton rubrum [1]) [µg/mL] | photodynamic efficacy below a concentration of 3 μg/ml (Trichophyton rubrum [1]) | effectiveness among the porphyrin derivatives (Trichophyton rubrum [1]; comparison of porphyrin derivatives) | dark toxicity (Trichophyton rubrum [2]) | survival of the fungus after photodynamic treatment (Trichophyton rubrum [1]) [%] | concentration at which dark toxicity is displayed (Trichophyton rubrum [2]) [µg/mL] |
| --- | --- | --- | --- | --- | --- | --- | --- | --- |
| C[n+]1ccc(-c2c3nc(c(-c4cc[n+](C)cc4)c4ccc([nH]4)c(-c4cc[n+](C)cc4)c4nc(c(-c5ccccc5)c5ccc2[nH]5)C=C4)C=C3)cc1.[Cl-].[Cl-].[Cl-] [Sylsens B, 5,10,15-tris(4-methylpyridinium)-20-phenyl-[21H, 23H]-porphyrine trichloride] | completely killing the fungus in almost all experiments | analogous to the effect caused by the other porphyrins | 3 | better photodynamic efficacy | by far the most effective | no dark toxicity |  |  |
| CC1=C(CCC(=O)O)c2cc3[nH]c(cc4nc(cc5[nH]c(cc1n2)c(C)c5C(C)O)C(C)=C4C(C)O)c(C)c3CCC(=O)O (stereo not drawn) [HP, Hematoporphyrin] |  |  |  |  |  | no dark toxicity |  |  |
| CC1=C(CCC(=O)O)c2cc3nc(cc4[nH]c(cc4C)cc4[nH]c(cc1n2)cc4C)C(C)=C3CCC(=O)O [DP, deuteroporphyrin] |  |  |  | poorest efficacy |  | expresses a dark toxicity at higher concentrations |  |  |
| deuteroporphyrin monomethylester [DP mme] | completely killing the fungus in almost all experiments | analogous to the effect caused by the other porphyrins | 3 | the same as detected with HP |  | expresses a dark toxicity at higher concentrations |  |  |
| Photofrin | merely a delay of growth in the first days |  |  |  |  |  | 100 | ≥ 90 |
| [Zn+2].c1ccc2c(c1)-c1nc-2nc2[n-]c(nc3nc([n-]c4nc(n1)-c1ccccc1-4)-c1ccccc1-3)c1ccccc21 [ZnPc] |  |  |  |  |  |  | 100 |  |
